Experimental data reported in ChEMBL document CHEMBL3638030, “IC50 data for the L-type calcium channel extracted from a set of literature articles”.

Legend:
[1] = biological target: T1, Voltage-dependent L-type calcium channel subunit alpha-1C (Rattus norvegicus, UniProt P22002); assay: Inhibition of Cav1.2 calcium current measured using whole cell patch clamp in rat myocyte; type: functional, Heart, Cardiac Muscle Cell; set-up: ca sol conc 1.8 mM, temp 20-25 C
[2] = biological target: Voltage-dependent L-type calcium channel subunit alpha-1C (Oryctolagus cuniculus, UniProt P15381); assay: Inhibition of Cav1.2 calcium current measured using whole cell patch clamp in rabbit ventricular myocytes; type: functional, cell-based, Heart, Ventricular myocyte; set-up: ca sol conc 1 - BaCl2 mM, temp 37 C
[3] = biological target: T2, Voltage-dependent L-type calcium channel subunit alpha-1C (Cavia porcellus, UniProt O35505); assay: (§1) Inhibition of Cav1.2 calcium current measured using whole cell patch clamp in guinea pig atrial myocytes; type: functional, cell-based, Heart, Cardiac Muscle Cell; set-up: ca sol conc 1.8 mM, temp 36 pm 1 C
T2 sequence (O35505 whole entry): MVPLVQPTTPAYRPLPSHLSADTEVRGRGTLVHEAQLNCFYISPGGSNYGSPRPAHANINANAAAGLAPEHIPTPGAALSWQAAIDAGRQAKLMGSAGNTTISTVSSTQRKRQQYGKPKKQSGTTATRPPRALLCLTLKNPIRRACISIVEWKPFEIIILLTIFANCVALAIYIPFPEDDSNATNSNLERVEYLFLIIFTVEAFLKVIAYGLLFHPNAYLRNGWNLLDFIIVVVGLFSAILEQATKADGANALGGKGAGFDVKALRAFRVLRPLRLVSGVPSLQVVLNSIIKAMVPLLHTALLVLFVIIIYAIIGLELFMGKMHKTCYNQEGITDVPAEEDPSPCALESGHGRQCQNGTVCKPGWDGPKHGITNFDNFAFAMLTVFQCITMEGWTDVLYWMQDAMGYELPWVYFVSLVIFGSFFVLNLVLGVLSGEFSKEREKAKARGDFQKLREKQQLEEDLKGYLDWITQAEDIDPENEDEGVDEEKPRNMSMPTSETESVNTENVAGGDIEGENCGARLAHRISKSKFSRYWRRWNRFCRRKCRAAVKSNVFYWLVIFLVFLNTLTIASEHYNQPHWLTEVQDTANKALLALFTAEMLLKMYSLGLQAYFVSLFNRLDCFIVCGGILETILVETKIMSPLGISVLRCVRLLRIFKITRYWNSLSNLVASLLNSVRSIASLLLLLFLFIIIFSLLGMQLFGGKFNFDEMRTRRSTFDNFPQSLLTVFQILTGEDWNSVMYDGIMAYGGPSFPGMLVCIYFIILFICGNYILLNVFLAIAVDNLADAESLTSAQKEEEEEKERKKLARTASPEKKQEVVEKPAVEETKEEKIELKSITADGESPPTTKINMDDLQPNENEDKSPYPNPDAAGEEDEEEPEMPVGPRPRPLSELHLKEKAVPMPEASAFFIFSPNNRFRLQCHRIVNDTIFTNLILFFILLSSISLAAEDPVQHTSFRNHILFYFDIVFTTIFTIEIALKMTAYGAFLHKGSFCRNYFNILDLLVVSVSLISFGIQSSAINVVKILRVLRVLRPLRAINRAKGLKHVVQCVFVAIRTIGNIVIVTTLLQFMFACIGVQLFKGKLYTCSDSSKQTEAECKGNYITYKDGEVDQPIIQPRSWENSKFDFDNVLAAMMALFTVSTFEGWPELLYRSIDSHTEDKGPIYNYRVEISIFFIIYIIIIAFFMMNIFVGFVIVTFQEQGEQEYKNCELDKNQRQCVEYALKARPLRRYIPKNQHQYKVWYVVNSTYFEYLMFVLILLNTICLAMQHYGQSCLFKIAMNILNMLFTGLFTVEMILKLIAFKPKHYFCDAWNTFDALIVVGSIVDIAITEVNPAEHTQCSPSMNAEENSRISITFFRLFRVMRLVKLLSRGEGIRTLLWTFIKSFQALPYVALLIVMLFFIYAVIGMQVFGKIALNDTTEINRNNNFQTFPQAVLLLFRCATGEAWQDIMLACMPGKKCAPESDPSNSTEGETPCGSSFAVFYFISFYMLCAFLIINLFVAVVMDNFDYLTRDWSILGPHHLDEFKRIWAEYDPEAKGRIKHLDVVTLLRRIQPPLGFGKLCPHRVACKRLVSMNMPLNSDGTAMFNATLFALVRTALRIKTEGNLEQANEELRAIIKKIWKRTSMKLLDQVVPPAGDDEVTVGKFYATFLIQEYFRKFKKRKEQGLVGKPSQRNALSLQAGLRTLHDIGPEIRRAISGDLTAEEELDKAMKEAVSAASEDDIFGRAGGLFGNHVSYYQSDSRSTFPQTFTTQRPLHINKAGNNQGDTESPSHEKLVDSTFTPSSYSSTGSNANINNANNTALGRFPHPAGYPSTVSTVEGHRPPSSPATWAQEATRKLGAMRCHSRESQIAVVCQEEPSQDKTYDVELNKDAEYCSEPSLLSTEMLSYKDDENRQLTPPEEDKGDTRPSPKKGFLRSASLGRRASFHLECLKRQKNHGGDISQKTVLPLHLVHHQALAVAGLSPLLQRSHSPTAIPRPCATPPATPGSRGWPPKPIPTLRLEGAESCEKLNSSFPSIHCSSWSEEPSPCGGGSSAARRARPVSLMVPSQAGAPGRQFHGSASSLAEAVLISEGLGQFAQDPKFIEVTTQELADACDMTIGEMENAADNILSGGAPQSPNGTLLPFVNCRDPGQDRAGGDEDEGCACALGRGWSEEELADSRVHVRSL

[4] = biological target: T1, Voltage-dependent L-type calcium channel subunit alpha-1C; assay: (§2) Inhibition of Cav1.2 calcium current measured using whole cell patch clamp in rat ventricular myocytes; type: functional, cell-based, Heart, Ventricular myocyte; set-up: ca sol conc 1.8 mM, temp 25-27 C
[5] = biological target: L-type calcium channel alpha 1C/beta 2A (Oryctolagus cuniculus, UniProt P15381+P54288); assay: Inhibition of Cav1.2 calcium current measured using whole cell patch clamp in human HEK293 cells transfected with rabbit L-type calcium channel subunits; type: functional, cell-based; set-up: ca sol conc 5 mM, temp room
[6] = biological target: T1, Voltage-dependent L-type calcium channel subunit alpha-1C; assay: Inhibition of Cav1.2 calcium current measured using FLIPR in rat aortic A7r5 cells; type: functional, cell-based
[7] = biological target: Voltage-dependent L-type calcium channel subunit alpha-1C (Homo sapiens, UniProt Q13936); assay: Inhibition of Cav1.2 calcium current measured using whole cell patch clamp in human atrial myocytes; type: functional, cell-based, Heart, Cardiac Muscle Cell; set-up: ca sol conc 2 mM, temp 22/37 C
[8] = biological target: T2, Voltage-dependent L-type calcium channel subunit alpha-1C; assay: (§3) Inhibition of Cav1.2 calcium current measured using whole cell patch clamp in guinea pig ventricular myocytes; type: functional, cell-based, Heart, Ventricular myocyte; set-up: ca sol conc 2 mM, temp 22/37 C
[9] = biological target: T2, Voltage-dependent L-type calcium channel subunit alpha-1C; assay: as §3; type: functional, cell-based, Heart, Ventricular myocyte; set-up: ca sol conc 1.2 mM, temp 24 pm 1 C
[10] = biological target: T1, Voltage-dependent L-type calcium channel subunit alpha-1C; assay: Inhibition of Cav1.2 calcium current measured using whole cell patch clamp in rat Artery myocytes; type: functional, cell-based, Tail; set-up: ca sol conc 5 mM, temp 20-22 C
[11] = biological target: T2, Voltage-dependent L-type calcium channel subunit alpha-1C; assay: as §3; type: functional, cell-based, Heart, Ventricular myocyte; set-up: ca sol conc 2 mM, temp 21-23 C
[12] = biological target: T1, Voltage-dependent L-type calcium channel subunit alpha-1C; assay: as §2; type: functional, cell-based, Heart, Ventricular myocyte; set-up: ca sol conc 1 mM, temp 22-25 C
[13] = biological target: T1, Voltage-dependent L-type calcium channel subunit alpha-1C; assay: as §2; type: functional, cell-based, Heart, Ventricular myocyte; set-up: ca sol conc 1.8 mM
[14] = biological target: T2, Voltage-dependent L-type calcium channel subunit alpha-1C; assay: as §3; type: functional, cell-based, Heart, Ventricular myocyte; set-up: ca sol conc 1 mM, temp 35 C
[15] = biological target: T2, Voltage-dependent L-type calcium channel subunit alpha-1C; assay: as §3; type: functional, cell-based, Heart, Ventricular myocyte; set-up: ca sol conc 1.8 mM, temp 20-24 C
[16] = biological target: T2, Voltage-dependent L-type calcium channel subunit alpha-1C; assay: as §3; type: functional, cell-based, Heart, Ventricular myocyte; set-up: ca sol conc 1.8 mM, temp 35-36 C
[17] = biological target: Voltage-dependent L-type calcium channel subunit alpha-1C (Mus musculus, UniProt Q01815); assay: Inhibition of Cav1.2 calcium current measured using whole cell patch clamp in mouse ventricular myocytes; type: functional, cell-based, Heart, Ventricular myocyte; set-up: ca sol conc 2.5 mM, temp 22-24 C
[18] = biological target: T2, Voltage-dependent L-type calcium channel subunit alpha-1C; assay: as §1; type: functional, cell-based, Heart, Cardiac Muscle Cell; set-up: ca sol conc 2 mM, temp 22 pm 1 C
[19] = biological target: T2, Voltage-dependent L-type calcium channel subunit alpha-1C; assay: as §3; type: functional, cell-based, Heart, Ventricular myocyte; set-up: ca sol conc 1.8 mM, temp 35 pm 0.5 C

T1 sequence (P22002 whole entry): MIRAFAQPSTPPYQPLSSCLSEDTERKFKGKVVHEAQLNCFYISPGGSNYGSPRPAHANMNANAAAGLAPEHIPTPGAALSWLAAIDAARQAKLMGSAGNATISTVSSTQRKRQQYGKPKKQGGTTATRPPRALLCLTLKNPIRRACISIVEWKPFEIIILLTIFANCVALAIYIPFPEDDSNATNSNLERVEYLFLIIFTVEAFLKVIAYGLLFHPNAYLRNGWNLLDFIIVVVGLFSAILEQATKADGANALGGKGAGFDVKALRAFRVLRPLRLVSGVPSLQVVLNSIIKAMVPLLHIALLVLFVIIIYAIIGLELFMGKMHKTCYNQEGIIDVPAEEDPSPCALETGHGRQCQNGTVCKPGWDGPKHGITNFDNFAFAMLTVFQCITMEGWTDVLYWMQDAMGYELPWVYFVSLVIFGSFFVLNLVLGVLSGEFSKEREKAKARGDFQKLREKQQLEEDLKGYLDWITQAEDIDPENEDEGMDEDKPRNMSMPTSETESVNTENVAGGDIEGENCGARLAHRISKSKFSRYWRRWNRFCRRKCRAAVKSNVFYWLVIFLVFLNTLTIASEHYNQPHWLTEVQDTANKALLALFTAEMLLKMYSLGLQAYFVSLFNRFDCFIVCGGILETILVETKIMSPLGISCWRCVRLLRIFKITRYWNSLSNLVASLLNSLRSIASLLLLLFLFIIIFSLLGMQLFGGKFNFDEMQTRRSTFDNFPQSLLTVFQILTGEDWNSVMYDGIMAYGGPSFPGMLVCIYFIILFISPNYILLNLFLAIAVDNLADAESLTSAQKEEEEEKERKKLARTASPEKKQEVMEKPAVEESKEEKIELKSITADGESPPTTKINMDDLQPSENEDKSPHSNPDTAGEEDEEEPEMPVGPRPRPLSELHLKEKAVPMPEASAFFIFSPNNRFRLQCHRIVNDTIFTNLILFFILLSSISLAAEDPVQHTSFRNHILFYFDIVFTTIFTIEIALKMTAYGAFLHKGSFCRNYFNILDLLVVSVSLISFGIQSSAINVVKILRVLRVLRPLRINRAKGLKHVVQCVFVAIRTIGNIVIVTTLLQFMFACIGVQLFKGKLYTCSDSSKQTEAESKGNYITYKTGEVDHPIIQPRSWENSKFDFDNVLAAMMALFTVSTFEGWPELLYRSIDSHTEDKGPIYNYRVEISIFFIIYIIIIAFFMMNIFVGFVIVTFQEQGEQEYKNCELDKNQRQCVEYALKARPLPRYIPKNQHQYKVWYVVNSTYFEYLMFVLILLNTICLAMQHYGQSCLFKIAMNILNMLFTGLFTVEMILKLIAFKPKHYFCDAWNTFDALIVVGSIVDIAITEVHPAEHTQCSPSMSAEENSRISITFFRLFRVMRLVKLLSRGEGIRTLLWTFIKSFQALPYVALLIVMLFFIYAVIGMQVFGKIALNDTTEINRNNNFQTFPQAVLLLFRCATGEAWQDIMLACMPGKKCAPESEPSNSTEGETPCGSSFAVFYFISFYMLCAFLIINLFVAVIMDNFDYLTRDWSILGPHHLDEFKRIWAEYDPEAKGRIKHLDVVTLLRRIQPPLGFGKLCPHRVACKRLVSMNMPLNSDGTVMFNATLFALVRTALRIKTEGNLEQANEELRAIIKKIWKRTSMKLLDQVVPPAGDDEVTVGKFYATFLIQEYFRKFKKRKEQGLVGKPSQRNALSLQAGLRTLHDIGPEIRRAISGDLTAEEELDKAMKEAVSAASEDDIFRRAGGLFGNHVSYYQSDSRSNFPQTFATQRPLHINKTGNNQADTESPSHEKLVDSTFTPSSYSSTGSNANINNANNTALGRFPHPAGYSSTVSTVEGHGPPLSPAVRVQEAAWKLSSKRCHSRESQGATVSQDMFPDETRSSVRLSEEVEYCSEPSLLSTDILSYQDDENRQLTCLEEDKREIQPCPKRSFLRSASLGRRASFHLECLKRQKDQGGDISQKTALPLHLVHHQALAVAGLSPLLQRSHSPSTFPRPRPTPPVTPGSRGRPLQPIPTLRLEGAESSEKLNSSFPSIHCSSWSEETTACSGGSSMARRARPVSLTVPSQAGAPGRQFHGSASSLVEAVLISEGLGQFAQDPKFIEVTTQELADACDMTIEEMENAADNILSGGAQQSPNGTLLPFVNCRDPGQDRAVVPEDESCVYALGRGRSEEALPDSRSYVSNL

Question: CC(=O)N1CCN(c2ccc(OCC3COC(Cn4ccnc4)(c4ccc(Cl)cc4Cl)O3)cc2)CC1 (stereo unspecified) [KETOCONAZOLE] was tested. Which IC50 [1] did it give?
Answer: 3.5 µM

Question: How did the IC50 [2] turn out when CC(C)[C@@H]1CC[C@@H](C)C[C@H]1O [LEVOMENTHOL] was run?
Answer: 74.6 µM

Question: For COc1ccc(OCCCN(C)CCOc2ccc3c(c2)OCO3)c([C@@H]2Sc3ccccc3N(C)C2=O)c1 [LEVOSEMOTIADIL], which IC50 [3] is on record?
Answer: 1.29 µM

Question: How did the IC50 [4] turn out when O=C1c2ccccc2-c2c3c(cc4ccnc1c24)OCO3 [LIRIODENINE] was run?
Answer: 2.5 µM

Question: With O=c1cc(N2CCOCC2)oc2c(-c3ccccc3)cccc12 [LY-294002] as the molecule, how does the IC50 [5] read?
Answer: 12 µM

Question: For COCC(=O)O[C@]1(CCN(C)CCCc2nc3ccccc3[nH]2)CCc2cc(F)ccc2[C@@H]1C(C)C [MIBEFRADIL], which IC50 [6] is on record?
Answer: 1.1 µM

Question: Which IC50 [1] does the source give for Clc1ccc(COC(Cn2ccnc2)c2ccc(Cl)cc2Cl)c(Cl)c1 (stereo unspecified) [MICONAZOLE] here?
Answer: 3 µM

Question: With CCCOC(C(=O)OC1CCN(C)CC1)(c1ccccc1)c1ccccc1 [PROPIVERINE] as the molecule, how does the IC50 [7] read?
Answer: 41.7 µM

Question: What about the IC50 [8] of the same molecule?
Answer: 34.7 µM

Question: How did the IC50 [9] turn out when CCN(CC)CCCC(C)Nc1c2ccc(Cl)cc2nc2ccc(OC)cc12 (stereo unspecified) [QUINACRINE] was run?
Answer: 5.6 µM

Question: For O=c1c(O)c(-c2ccc(O)cc2)oc2cc(O)ccc12 [RESOKAEMPFEROL], which IC50 [10] is on record?
Answer: 27.5 µM

Question: With CCCN1CCCC[C@H]1C(=O)Nc1c(C)cccc1C [ROPIVACAINE] as the molecule, how does the IC50 [11] read?
Answer: 430 µM

Question: Which IC50 [12] does the source give for O=C(/C=C/c1ccc(O)c(O)c1/C=C/c1ccc(O)c(O)c1)O[C@H](Cc1ccc(O)c(O)c1)C(=O)O [SALVIANOLIC ACID A] here?
Answer: 38.3 µM

Question: With CC(C)CC(N(C)C)C1(c2ccc(Cl)cc2)CCC1 (stereo unspecified) [SIBUTRAMINE] as the molecule, how does the IC50 [13] read?
Answer: 9.97 µM

Question: CN1CCN(c2ncc(-c3cc(Cl)cc(Cl)c3Cl)c(N)n2)CC1 [SIPATRIGINE] was tested. Which IC50 [14] did it give?
Answer: 6.02 µM

Question: How did the IC50 [15] turn out when COc1ccc(S(=O)(=O)NCc2cc(CN3CCCC3)c(O)c(CN3CCCC3)c2)cc1 [SULCARDINE] was run?
Answer: 69.2 µM

Question: For CCN(CC)CC#CC(C)(C)OC(=O)C(O)(c1ccccc1)C1CCCCC1 (stereo unspecified) [TEMIVERINE], which IC50 [16] is on record?
Answer: 27 µM

Question: For CCC(C)(C)C(=O)O[C@H]1C[C@@H](C)C=C2C=C[C@H](C)[C@H](CC[C@@H](O)C[C@@H](O)CC(=O)O)[C@H]21 [TENIVASTATIN], which IC50 [17] is on record?
Answer: 3.9 µM

Question: With CC(CC(c1ccccc1)c1ccccc1)NC(C)(C)C (stereo unspecified) [TERODILINE] as the molecule, how does the IC50 [16] read?
Answer: 33.5 µM

Question: Which IC50 [18] does the source give for CCCC(C)C1(CC)C(=O)NC(=S)NC1=O (stereo unspecified) [THIOPENTAL] here?
Answer: 0.28 µM

Question: Cc1c(C)c2c(c(C)c1O)CCC(C)(COc1ccc(CC3SC(=O)NC3=O)cc1)O2 (stereo unspecified) [TROGLITAZONE] was tested. Which IC50 [19] did it give?
Answer: 0.8 µM
